Assay results taken from ChEMBL document CHEMBL1135909, “Inhibition of protein-protein association by small molecules: approaches and progress” (J Med Chem, 2002).
Values belong to the compound of their own block, whether it stands above or below them.

How the values were obtained:
[1] = species on record: Homo sapiens; test: cells
[2] = Selective inhibition of Src SH2 domain over ZAP-70 SH2 domain; assay type: functional
[3] = Inhibition of thyroid-hormone induced bone resorption; assay type: functional
[4] = target: T1, Proto-oncogene tyrosine-protein kinase Src (Homo sapiens, UniProt P12931); test: Inhibition of binding to Src SH2 domain; assay type: functional
[5] = Inhibition of Interleukin-1 alpha binding to Interleukin-1 receptor
[6] = system: Rattus norvegicus; test: The compound was tested in vivo for suppressing LPS-stimulated plasma NOx production in rats; assay type: functional
[7] = target: Nitric oxide synthase, inducible (Homo sapiens, UniProt P35228); test: Binding against the partially purified human Inducible nitric oxide synthase
[8] = Inhibitory activity
[9] = target: T2, Growth factor receptor-bound protein 2 (Homo sapiens, UniProt P62993); test: Inhibition of Growth factor receptor bound protein 2 SH2-domain binding
[10] = target: T2, Growth factor receptor-bound protein 2; test: Inhibition of c-Met interaction with Grb2 SH2 domain in Okajima (human gastric carcinoma) cells at 30 nM; assay type: functional; settings: Stomach
[11] = target: Phosphodiesterase 1 (Homo sapiens, UniProt P54750+Q01064+Q14123); test: Inhibition of calmodulin-dependent PDE(3',5'-phosphodiesterase); assay type: functional
[12] = species on record: Oryctolagus cuniculus; test: Inhibition of the absorption of dentine slices by rabbit osteoclasts; assay type: functional
[13] = target: T1, Proto-oncogene tyrosine-protein kinase Src; test: Inhibition of Src protein tyrosine kinase
[14] = system: HL-60; test: Percent cell death of cultured HL60 human leukemia cells at dose of 50 uM; assay type: functional
[15] = target: Apoptosis regulator Bcl-2 (Homo sapiens, UniProt P10415); test: Inhibitory activity against Bcl-2 functioning; assay type: functional
[16] = system: CHO; test: Inhibition of [125I]RANTES association with CCR5 expressed in CHO cells at 100 nM; assay type: functional, cell-based; settings: Cricetulus griseus
[17] = target: T3, High affinity nerve growth factor receptor (Homo sapiens, UniProt P04629); test: Inhibition of NGF-stimulated Trk A in PC12 cells; assay type: cell-based, PC-12
[18] = target: T3, High affinity nerve growth factor receptor; test: Inhibition of NGF-stimulated Trk A
[19] = target: T4, Tumor necrosis factor receptor superfamily member 16 (Homo sapiens, UniProt P08138); test: Competitive binding against Nerve growth factor to p75-NGF receptor in PC12 cells; assay type: cell-based, PC-12
T4 sequence (P08138 whole entry): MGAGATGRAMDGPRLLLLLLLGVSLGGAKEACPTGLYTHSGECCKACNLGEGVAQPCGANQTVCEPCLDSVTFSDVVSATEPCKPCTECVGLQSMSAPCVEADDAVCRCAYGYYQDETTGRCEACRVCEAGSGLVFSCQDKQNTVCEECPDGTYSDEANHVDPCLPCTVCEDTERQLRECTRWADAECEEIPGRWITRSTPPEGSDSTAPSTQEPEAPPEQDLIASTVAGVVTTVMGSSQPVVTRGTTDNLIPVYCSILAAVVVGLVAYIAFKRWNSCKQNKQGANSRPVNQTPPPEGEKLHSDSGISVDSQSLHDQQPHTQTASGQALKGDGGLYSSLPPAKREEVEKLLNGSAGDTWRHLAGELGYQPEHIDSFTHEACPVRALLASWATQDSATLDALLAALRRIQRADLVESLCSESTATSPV

T3 sequence (P04629 whole entry): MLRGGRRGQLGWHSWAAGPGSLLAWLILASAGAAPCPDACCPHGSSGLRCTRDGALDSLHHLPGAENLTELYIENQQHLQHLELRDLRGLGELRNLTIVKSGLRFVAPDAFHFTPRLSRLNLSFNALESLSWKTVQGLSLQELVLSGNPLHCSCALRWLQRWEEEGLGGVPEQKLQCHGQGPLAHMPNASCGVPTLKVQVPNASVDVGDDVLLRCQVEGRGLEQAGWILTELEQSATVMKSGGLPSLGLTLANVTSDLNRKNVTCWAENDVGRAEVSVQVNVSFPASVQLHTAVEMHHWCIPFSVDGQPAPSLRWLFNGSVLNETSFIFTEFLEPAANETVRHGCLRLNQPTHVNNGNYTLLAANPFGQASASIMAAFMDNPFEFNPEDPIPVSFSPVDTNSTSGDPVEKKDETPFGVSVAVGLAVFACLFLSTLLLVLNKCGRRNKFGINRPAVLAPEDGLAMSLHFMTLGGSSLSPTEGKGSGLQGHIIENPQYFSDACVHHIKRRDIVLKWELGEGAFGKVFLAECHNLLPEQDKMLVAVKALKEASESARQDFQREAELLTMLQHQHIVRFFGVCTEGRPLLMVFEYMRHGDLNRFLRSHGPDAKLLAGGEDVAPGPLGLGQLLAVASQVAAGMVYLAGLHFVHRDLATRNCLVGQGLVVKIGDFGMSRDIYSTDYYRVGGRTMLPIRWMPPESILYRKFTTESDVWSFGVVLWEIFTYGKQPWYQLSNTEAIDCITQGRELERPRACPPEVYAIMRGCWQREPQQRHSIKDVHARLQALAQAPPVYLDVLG
T1 sequence (P12931 2-536 limits assumed): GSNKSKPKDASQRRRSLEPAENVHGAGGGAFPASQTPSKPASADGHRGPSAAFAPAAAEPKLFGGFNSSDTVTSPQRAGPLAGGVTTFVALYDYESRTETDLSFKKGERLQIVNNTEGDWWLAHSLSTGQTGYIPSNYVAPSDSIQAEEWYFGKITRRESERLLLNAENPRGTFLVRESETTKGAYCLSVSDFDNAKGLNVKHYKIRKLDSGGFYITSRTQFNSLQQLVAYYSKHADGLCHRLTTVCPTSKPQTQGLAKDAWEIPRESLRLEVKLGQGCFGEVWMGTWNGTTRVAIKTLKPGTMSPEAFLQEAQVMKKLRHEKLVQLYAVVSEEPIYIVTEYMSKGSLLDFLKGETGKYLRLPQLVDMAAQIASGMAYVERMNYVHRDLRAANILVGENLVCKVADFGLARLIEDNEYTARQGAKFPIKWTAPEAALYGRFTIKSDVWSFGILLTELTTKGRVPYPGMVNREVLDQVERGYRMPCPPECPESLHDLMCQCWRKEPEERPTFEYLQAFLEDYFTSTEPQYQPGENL
Chain of Apoptosis regulator Bcl-2 (P10415 whole entry): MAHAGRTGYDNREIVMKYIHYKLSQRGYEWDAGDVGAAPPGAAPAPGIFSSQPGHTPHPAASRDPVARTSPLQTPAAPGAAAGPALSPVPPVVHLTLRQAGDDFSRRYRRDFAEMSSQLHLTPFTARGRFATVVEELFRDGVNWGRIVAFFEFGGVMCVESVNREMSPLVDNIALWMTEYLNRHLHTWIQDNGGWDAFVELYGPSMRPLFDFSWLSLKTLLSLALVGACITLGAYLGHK
Chain of Nitric oxide synthase, inducible (P35228 whole entry): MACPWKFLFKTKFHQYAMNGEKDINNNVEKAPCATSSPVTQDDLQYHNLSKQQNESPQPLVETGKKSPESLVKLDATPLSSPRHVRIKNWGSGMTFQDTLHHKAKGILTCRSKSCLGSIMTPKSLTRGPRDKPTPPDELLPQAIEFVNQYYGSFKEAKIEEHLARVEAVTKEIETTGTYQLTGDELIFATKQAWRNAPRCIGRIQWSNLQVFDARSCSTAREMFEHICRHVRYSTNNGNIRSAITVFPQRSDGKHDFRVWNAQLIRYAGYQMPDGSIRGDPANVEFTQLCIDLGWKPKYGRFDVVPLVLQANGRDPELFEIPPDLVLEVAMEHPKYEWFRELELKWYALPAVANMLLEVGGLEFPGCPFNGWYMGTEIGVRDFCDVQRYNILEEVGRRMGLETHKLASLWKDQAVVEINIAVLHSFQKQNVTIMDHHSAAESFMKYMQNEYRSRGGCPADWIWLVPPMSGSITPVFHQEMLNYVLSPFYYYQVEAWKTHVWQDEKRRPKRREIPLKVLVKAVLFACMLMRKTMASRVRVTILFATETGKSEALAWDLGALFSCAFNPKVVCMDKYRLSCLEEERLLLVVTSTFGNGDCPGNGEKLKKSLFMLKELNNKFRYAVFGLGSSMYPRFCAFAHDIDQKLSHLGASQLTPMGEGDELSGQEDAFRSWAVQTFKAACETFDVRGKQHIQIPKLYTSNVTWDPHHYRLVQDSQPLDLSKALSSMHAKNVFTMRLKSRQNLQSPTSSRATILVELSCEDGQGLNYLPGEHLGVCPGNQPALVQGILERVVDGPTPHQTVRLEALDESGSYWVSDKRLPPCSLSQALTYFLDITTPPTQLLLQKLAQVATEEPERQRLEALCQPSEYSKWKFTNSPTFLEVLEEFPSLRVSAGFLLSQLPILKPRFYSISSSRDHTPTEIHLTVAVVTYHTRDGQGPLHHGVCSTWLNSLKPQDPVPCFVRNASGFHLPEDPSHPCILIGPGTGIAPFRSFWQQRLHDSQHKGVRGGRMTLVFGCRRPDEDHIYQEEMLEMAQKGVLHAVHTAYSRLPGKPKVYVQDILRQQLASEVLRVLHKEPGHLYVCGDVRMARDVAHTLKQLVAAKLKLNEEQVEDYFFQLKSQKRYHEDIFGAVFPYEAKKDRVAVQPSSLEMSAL

Structure (SMILES): CC(=O)N[C@@H](Cc1ccccc1)C(=O)N[C@H]1CCCNC(=O)[C@H](CCCN=C(N)N)NC(=O)[C@H](Cc2c[nH]c3ccccc23)NC(=O)[C@@H](CC2CCCCC2)NC(=O)[C@@H]2CCCN2C1=O
IC50 [1]: 20 nM

IC50 [2]: 60000 nM
IC50 [3]: 42900 nM
IC50 [4]: 5500 nM
Structure (SMILES): CC(=O)NC(Cc1ccc(C(=O)O)c(C=O)c1)C(=O)N[C@H]1CCCCc2cc(OCC3CCCCC3)c(C(N)=O)cc21 (stereo partly drawn)

IC50 [5]: < 10000 nM
Structure (SMILES): CCCCCCOc1ccc(CCOc2cc(OCCCN)ccc2C(=O)NC(c2ccccc2)c2ccccc2)cc1

Structure (SMILES): COC(=O)N1CCN(c2ccnc(-n3ccnc3)n2)C(CC(=O)NCc2ccc3c(c2)OCO3)C1 (stereo not drawn)
ED50 [6]: 1.2 mg/kg
Ki [7]: 2.2 nM
IC50 [8]: 0.6 nM

IC50 [9]: 50 nM
Blockade [10]: 50%
Structure (SMILES): NC(=O)C[C@H](NC(=O)C1(NC(=O)[C@H](Cc2ccc(C(C(=O)O)C(=O)O)cc2)NC(=O)C(=O)O)CCCCC1)C(=O)NCCCc1ccc2ccccc2c1

IC50 [5]: < 10000 nM
Structure (SMILES): CCCCCCOc1cccc(CCOc2cc(OCCCN)ccc2C(=O)NC2c3ccccc3-c3ccccc32)c1

IC50 [11]: 20 nM
Structure (SMILES): CCc1cc(-c2ccc(OCC(=O)O)cc2C(C)C)ccc1-c1cccc(Cc2ccc3ccccc3c2)c1

IC50 [11]: 9 nM
Structure (SMILES): CCc1cc(-c2ccc(OCC(=O)O)cc2C(C)C)ccc1-c1cccc(Cc2cccc3ccccc23)c1

Structure (SMILES): CC(=O)NC(Cc1ccc(P(=O)(O)O)c(P(=O)(O)O)c1)C(=O)N[C@H]1CCCCc2cc(OCC3CCCCC3)c(C(N)=O)cc21 (stereo partly drawn)
IC50 [12]: 1600 nM
IC50 [13]: 300 nM

Structure (SMILES): CCSCCCCC(c1ccc(O)cc1)C(C)(CC)c1ccc(O)cc1 (stereo not drawn)
Cell death [14]: >90%
IC50 [15]: ~9000 nM

Structure (SMILES): Cc1ccc(-c2ccc3c(c2)C=C(C(=O)Nc2ccc(C[N+](C)(C)C4CCOCC4)cc2)CCC3)cc1
IC50 [16]: 1.4 nM

IC50 [8]: 1.1 nM
Structure (SMILES): O=C(CC1CNCCN1c1cc(Cl)nc(-n2ccnc2)n1)NCc1ccc2c(c1)OCO2 (stereo not drawn)

Structure (SMILES): NCCc1ccc(OCCCN=C(N)N)cc1OCCc1ccccc1
IC50 [5]: 770000 nM

IC50 [17]: 3720 nM
IC50 [18]: 5880 nM
Structure (SMILES): O=C1c2cccc3cc([N+](=O)[O-])cc(c23)C(=O)N1NCCO
IC50 [19]: 3720 nM
